How the values were obtained:
Assay type in all cases: cell-based
[1] = test system: human lymphoma cell line RAMOS cells; experiment: Cell growth inhibition test using RAMOS cell, ATP assay (CellTiter-Glo); conditions: Homo sapiens, Ramos, 72 h, cultured 3 days, 50% growth inhibition concentration
In short: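 RAMOS cells seeded at 4000 cells/well with compound and cultured 3 days at 37° C, 5% CO2; viability by CellTiter-Glo luminescence. Growth rate T/C % = 100×[(B−C)/(A−C)] using day-0 and final readings; GI50 interpolated from the two concentrations bracketing 50% growth.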

[2] = test system: HCC1954; experiment: Cell growth inhibition test, HCC1954; conditions: Homo sapiens, 72 h; HCC1954, Breast cancer, 3 days, CellTiter-Glo
Experimental: (§1) A cell growth inhibition test was carried out by treating a cultured cancer cell line with a test compound for a given period and then counting the number of viable cells by CellTiter-Glo Luminescent Cell Viability Assay (manufactured by Promega Corp.).
(§2) The following cells were inoculated to a 384-well plate containing the compound prepared in advance at predetermined concentrations. […]
(§3) The cells thus inoculated were cultured at 37° C. for 3 days under 5% CO2. […] Then, luminescence intensity was measured using a plate reader.
(§4) The number of viable cells and luminescence intensity have been confirmed to correlate with each other. Therefore, the rate of cell growth was calculated according to the following expression: Rate of cell growth (T/C %) of a test compound-supplemented well=100×[(B−C)/(A−C)] wherein A represents the luminescence intensity (final culture date) of a test compound-free well; B represents the luminescence intensity (final culture date) of a test compound-containing well; and C represents the luminescence intensity (day of cell inoculation) of a well at the start of contact of the cells with the test compound.
(§5) T/C % at the concentration of each of the serially diluted test compounds was determined. […]

[3] = test system: CAL-51; experiment: Cell growth inhibition test, CAL-51; conditions: Homo sapiens, 72 h; CAL-51, Breast cancer, 3 days, CellTiter-Glo
Experimental: as §1, §2, §3, §4, §5

[4] = test system: NCI-N87; experiment: Cell growth inhibition test, NCI-N87; conditions: Homo sapiens, 72 h; NCI-N87, Stomach cancer, 3 days, CellTiter-Glo
Experimental: as §1, §2, §3, §4, §5

[5] = test system: 786-0; experiment: Cell growth inhibition test, 786-0; conditions: Homo sapiens, 72 h; 786-0, Kidney cancer, 3 days, CellTiter-Glo
Experimental: as §1, §2, §3, §4, §5

[6] = test system: A-498; experiment: Cell growth inhibition test, A-498; conditions: Homo sapiens, A498, 72 h; A-498, Kidney cancer, 3 days, CellTiter-Glo
Experimental: as §1, §2, §3, §4, §5

[7] = test system: MOLT-3; experiment: Cell growth inhibition test, MOLT-3; conditions: Homo sapiens, 72 h; MOLT-3, Leukemia, 3 days, CellTiter-Glo
Experimental: as §1, §2, §3, §4, §5

[8] = test system: MV-4-11; experiment: Cell growth inhibition test, MV-4-11; conditions: Homo sapiens, MV4-11, 72 h; MV-4-11, Leukemia, 3 days, CellTiter-Glo
Experimental: as §1, §2, §3, §4, §5

[9] = test system: K-562; experiment: Cell growth inhibition test, K-562; conditions: Homo sapiens, K562, 72 h; K-562, Leukemia, 3 days, CellTiter-Glo
Experimental: as §1, §2, §3, §4, §5

[10] = test system: Hep G2; experiment: Cell growth inhibition test, Hep G2; conditions: Homo sapiens, HepG2, 72 h; Hep G2, Liver cancer, 3 days, CellTiter-Glo
Experimental: as §1, §2, §3, §4, §5

[11] = test system: DMS 273; experiment: Cell growth inhibition test, DMS 273; conditions: Homo sapiens, 72 h; DMS 273, Lung cancer, 3 days, CellTiter-Glo
Experimental: as §1, §2, §3, §4, §5

[12] = test system: NCI-H146; experiment: Cell growth inhibition test, NCI-H146; conditions: Homo sapiens, 72 h; NCI-H146, Lung cancer, 3 days, CellTiter-Glo
Experimental: as §1, §2, §3, §4, §5

[13] = test system: CAPAN-2; experiment: Cell growth inhibition test, CAPAN-2; conditions: Homo sapiens, 72 h; CAPAN-2, Pancreatic cancer, 3 days, CellTiter-Glo
Experimental: as §1, §2, §3, §4, §5

[14] = test system: DU 145; experiment: Cell growth inhibition test, DU 145; conditions: Homo sapiens, 72 h; DU 145, Prostate cancer, 3 days, CellTiter-Glo
Experimental: as §1, §2, §3, §4, §5

[15] = test system: COLO 829; experiment: Cell growth inhibition test, COLO 829; conditions: Homo sapiens, 72 h; COLO 829, Skin cancer, 3 days, CellTiter-Glo
Experimental: as §1, §2, §3, §4, §5

Q: What does the source list for `CCOc1ccc(Cl)cc1C(=O)NCC(C)(C)CC(=O)Nc1c([C@H](C)CN(C)C)n(C)n(-c2ccccc2)c1=O` [Example 68, 5-Chloro-N-[4-({5-[(1R)-2-(dimethylamino)-1-methylethyl]-1-methyl-3-oxo-2-phenyl-2,3-dihydro-1H-pyrazol-4-yl}amino)-2,2-dimethyl-4-oxobutyl]-2-ethoxybenzamide]?
A: GI50 [1]: 140 nM; GI50 [2]: 340 nM; GI50 [3]: 800 nM; GI50 [4]: 270 nM; GI50 [5]: 680 nM; GI50 [6]: 540 nM; GI50 [7]: 110 nM; GI50 [8]: 210 nM; GI50 [9]: 240 nM; GI50 [10]: 580 nM; GI50 [11]: 310 nM; GI50 [12]: 1100 nM; GI50 [13]: 640 nM; GI50 [14]: 530 nM; GI50 [15]: 200 nM

Q: With `CCOc1cc(F)c(Cl)cc1C(=O)NCC(C)(C)CC(=O)Nc1c(COC)n(C)n(-c2ccccc2)c1=O` [Example 113, 5-Chloro-2-ethoxy-4-fluoro-N-(4-{[5-(methoxymethyl)-1-methyl-3-oxo-2-phenyl-2,3-dihydro-1H-pyrazol-4-yl]amino}-2,2-dimethyl-4-oxobutyl)benzamide] as the compound, how does the GI50 [1] read?
A: The GI50 was 130 nM.

Q: And the GI50 [2]?
A: Its GI50 is 720 nM.

Q: What about the GI50 [3] of the same compound?
A: Its GI50 is 620 nM.

Q: What about the GI50 [4] of the same compound?
A: The GI50 was 530 nM.

Q: What about the GI50 [5] of the same compound?
A: Its GI50 is 320 nM.

Q: And the GI50 [6]?
A: The GI50 was 430 nM.

Q: And the GI50 [7]?
A: The GI50 was 150 nM.

Q: And the GI50 [8]?
A: The GI50 was 400 nM.

Q: And the GI50 [9]?
A: Its GI50 is 630 nM.

Q: What about the GI50 [10] of the same compound?
A: The GI50 was 380 nM.

Q: And the GI50 [11]?
A: The GI50 was 540 nM.

Q: What about the GI50 [12] of the same compound?
A: Its GI50 is 2000 nM.

Q: What about the GI50 [13] of the same compound?
A: Its GI50 is 750 nM.

Q: What about the GI50 [14] of the same compound?
A: The GI50 was 650 nM.

Q: What about the GI50 [15] of the same compound?
A: The GI50 was 350 nM.

Q: Which results are given for `CCOc1ncc(Cl)cc1C(=O)NCC(C)(C)CC(=O)Nc1c([C@H](C)CN(C)C)n(C)n(-c2ccccc2)c1=O` [Example 73, 5-Chloro-N-[4-({5-[(1R)-2-(dimethylamino)-1-methylethyl]-1-methyl-3-oxo-2-phenyl-2,3-dihydro-1H-pyrazol-4-yl}amino)-2,2-dimethyl-4-oxobutyl]-2-ethoxypyridine-3-carboxamide]?
A: GI50 [1]: 310 nM; GI50 [2]: 920 nM; GI50 [3]: 1300 nM; GI50 [4]: 660 nM; GI50 [5]: 920 nM; GI50 [6]: 940 nM; GI50 [7]: 190 nM; GI50 [8]: 490 nM; GI50 [9]: 560 nM; GI50 [10]: 1100 nM; GI50 [11]: 780 nM; GI50 [12]: 2700 nM; GI50 [13]: 980 nM; GI50 [14]: 1100 nM; GI50 [15]: 480 nM
